Results on nine compounds are retold here after article PMC4363603, “Inhibitory Effects of Chemical Compounds Isolated from the Rhizome of Smilax glabra on Nitric Oxide and Tumor Necrosis Factor-α Production in Lipopolysaccharide-Induced RAW264.7 Cell” (Evidence-based Complementary and Alternative Medicine : eCAM, 2015).

Holding throughout (format): cell-based, mouse
In data set [1] the test system is TNF-α production in LPS-induced RAW264.7 cells. Nature of the data set: TNF-α production in LPS-induced RAW264.7 cells (ELISA). Particulars: for IC50: Mus musculus, LPS-induced RAW264.7 cells; for inhibitory effect on LPS-induced TNF-α production (in words): RAW264.7 cells, compounds at [IC10] × 1, × 10^−1, × 10^−2. The procedure: (§1) The mouse macrophage-derived RAW264.7 cell line was purchased from Sun Yat-Sen University, Guangzhou, China, and maintained at 37°C in a humidified atmosphere containing 5% CO2 in Dulbecco's modified eagle medium (DMEM) supplemented with 10% heat-inactivated fetal bovine serum (FBS), penicillin (100 U/mL), and streptomycin (100 μg/mL). Cells in exponential growth phase were used for experiments.
RAW264.7 cells (3 × 10^6 cells/mL) were seeded onto 24-well culture plate and incubated for 12 h. The cells were then pretreated with various concentrations of the isolated compounds for 2 h before stimulation with LPS (100 ng/mL) with or without samples for 12 h. Supernatants were then collected and the TNF-α concentrations in the medium were determined using commercially available ESISA kits according to the manufacturer's instructions as described in previous study.
(§2) Figure 4 The inhibitory effects of the isolated compounds on NO (a) and TNF-α (b) productions in LPS-induced RAW264.7 cells. Cells were seeded into 24-well plates and incubated for 12 h and then treated with or without different concentrations of compounds for 24 h (for NO) or […] (for TNF-α). The culture supernatant was analyzed for nitrite and TNF-α production. Results shown are representative of three separate experiments.
In general terms: ELISA stands for enzyme-linked immunosorbent assay.

The test system of data set [2] is RAW264.7 cells. In words: MTT cell viability (cytotoxicity) assay. Particulars: 24 h incubation, concentration inhibiting 10% of cell proliferation, improved Karber methodology, defined as highest noncytotoxic concentration. The procedure:
as §1
The cytotoxicity of the isolated compounds toward RAW264.7 was evaluated by a conventional MTT assay as reported previously. RAW264.7 cells (1 × 10^5 cells/well) were inoculated to 96-well plates and incubated for 12 h and then treated with different concentrations of compounds. After additional 24 h incubation, 10 μL of MTT solution ([…]) was added to each well, and the plate was incubated for another 4 h. The medium was discarded and 150 μL of dimethyl sulfoxide (DMSO) was added to each well, solubilizing formazan. After 15 min incubation, absorbance at 570 nm was read using a microplate reader. The percent viability was calculated using the following formula: (1) Cell viability%=[…].
The anti-inflammatory activities of the isolates were tested in vitro for inhibiting the NO and TNF-α production in LPS-induced RAW264.7 cells. Firstly, the cytotoxicity of these compounds cells on the proliferation of RAW264.7 cells was measured by MTT assay. The IC10 value of each compound (Table 1), at which 10% of cells proliferation was inhibited, was calculated with an improved Karber methodology and defined as the highest noncytotoxic concentration. While the dose is ≤IC10, the effect of the isolated compound on RAW264.7 cells could be neglected. In the following experiments, the concentrations of each compound were set at [IC10] × 1, [IC10] × 10^−1, and [IC10] × 10^−2 levels.

Data set [3] deals with NO production in LPS-induced RAW264.7 cells. Nature of the data set: Nitric oxide production in LPS-induced RAW264.7 cells (Griess assay). The note with it: for inhibitory effect on LPS-induced NO production (in words): compounds at [IC10] × 1, × 10^−1, × 10^−2. The procedure:
as §1
Nitrite accumulation, as an indicator of NO production in the culture medium, was measured with the Griess reagent as reported previously. RAW264.7 cells were plated into 96-well plate at a density of 3 × 10^6 cells/mL. After 12 h incubation, cells were stimulated by LPS (100 ng/mL) with or without samples for 24 h. Subsequently, the supernatant (100 μL) was harvested and mixed with an equal volume of Griess reagent (0.1% N-(1-naphthyl) ethylenediamine dihydrochloride, 1% sulfanilamide, and 2.5% H3PO4) and stood for 15 min at room temperature in the dark. NO production was determined by measuring absorbance at 540 nm and was converted to nitrite concentration by reference to a standard curve generated with sodium nitrite.
Figure 1 Effects of ethanol extract of S. glabra (ESG) and its four subfractions (ESG-1, ESG-2, ESG-3, and ESG-4) on RAW264.7 cells viability and LPS-induced NO production. Cells viability (a) was tested by MTT assay; higher value of optical density at 490 nm means higher cell viability. Nitrite accumulated in cell culture supernatants was determined by Griess assay as an index for NO release (b). Cells were treated with LPS (1 μg/mL) for 24 h in the absence or presence of samples (1.6, 8.0, 40, and 200.0 μg/mL). The data were presented as mean ± S.D. (n = 5). Dexamethasone (DMS) was employed as a positive control. # and ###, respectively, mean P < 0.05 and P < 0.001 compared with control group. ∗, ∗∗, and ∗∗∗, respectively, mean P < 0.05, P < 0.01, and P < 0.001 compared with group treated with LPS alone.
as §2
For orientation: Nitrite, measured by Griess reagent, commonly stands in for NO production.

Bounds are passed on as bounds.

For `COc1cc([C@H]2OC[C@H]3[C@@H]2CO[C@@H]3c2cc(OC)c(O)c(OC)c2)cc(OC)c1O` [Comp. 1, syringaresinol], in data set [1], the half-inhibitory concentration (IC50) is < 2.3 µM and the “inhibitory effect on LPS-induced TNF-α production (in words)” value is “high inhibitory effects”. In data set [2], this compound showed an IC10 values of 23.9 ± 1.8 µM. Besides, the “inhibitory effect on LPS-induced NO production (in words)” value in data set [3] was “moderate suppression effects”.
In data set [2], `COc1cc(O)cc2c1C(=O)O[C@@H](C)CCCCCCC2` [Comp. 2, lasiodiplodin] came in with an IC10 values of 147.9 ± 15.4 µM. Moreover, in data set [3], the “inhibitory effect on LPS-induced NO production (in words)” value is “moderate suppression effects”.
For `CC1CCCCCCCc2cc(O)cc(O)c2C(=O)O1` (centres unmarked) [Comp. 3, de-O-methyllasiodiplodin] the same measures were 154.3 ± 20.5 µM and “moderate suppression effects”.
Turning to `COc1cc(C(=O)O)cc(OC)c1O` [Comp. 4, syringic acid], the IC10 values in data set [2] came out at 5.1 ± 4.2 µM. For the same compound, the inhibition at 0.5 µM in data set [3] (Mus musculus, compound at 0.5 μM) was ~19%. Moreover, the inhibition at 5.1 µM in data set [3] (Mus musculus, compound at 5.1 μM) is ~25%. Besides, the “inhibitory effect on LPS-induced NO production (in words)” value in data set [3] is recorded as “significant inhibitory effects”.
`COc1cc(C(O)C(CO)C(CO)C(O)c2cc(OC)c(O)c(OC)c2)cc(OC)c1O` (centres unmarked) [Comp. 5, 1,4-bis(4-hydroxy-3,5-dimethoxyphenyl)-2,3-bis(hydroxymethyl)-1,4-butanediol]: in data set [1], the concentration for half-maximal inhibition (IC50) is < 16.6 µM and the “inhibitory effect on LPS-induced TNF-α production (in words)” value is given as “high inhibitory effects”. This compound also yielded an IC10 values in data set [2] of 166.0 ± 9.7 µM. In addition, the “inhibitory effect on LPS-induced NO production (in words)” value in data set [3] is reported as “moderate suppression effects”.
Regarding `COc1cc(C2c3c(cc(OC)c(O)c3OC)CC(CO)C2CO)cc(OC)c1O` (centres unmarked) [Comp. 6, lyoniresinol], the IC10 values in data set [2] is 238.1 ± 31.6 µM. Also, in data set [3] (Mus musculus, compound at level of IC10, 238.1 μM), the inhibition at 238.1 µM came to 32.7%. Moreover, in data set [3], the “inhibitory effect on LPS-induced NO production (in words)” value is given as “lowest inhibitory effects”.
Turning to `Oc1ccc(/C=C/c2cc(O)cc(O)c2)cc1` [Comp. 7, trans-resveratrol], in data set [1], the half-inhibitory concentration (IC50) was < 4.4 µM and the “inhibitory effect on LPS-induced TNF-α production (in words)” value is recorded as “high inhibitory effects”. Also, the IC10 values in data set [2] worked out at 4.4 ± 5.7 µM. Moreover, the inhibition at 0.4 µM in data set [3] (Mus musculus, compound at 0.4 μM) is ~32%. The inhibition at 4.4 µM in data set [3] (Mus musculus, compound at 4.4 μM) is ~48%. Besides, the “inhibitory effect on LPS-induced NO production (in words)” value in data set [3] was “significant inhibitory effects”.
In turn, `COC(=O)/C=C/c1ccc(O)c(O)c1` [Comp. 8, trans-caffeic acid methyl ester] registered an IC10 values in data set [2] of 5.2 ± 3.2 µM.
Regarding `O=C1c2c(O)cc(O)cc2O[C@H](c2ccc(O)cc2)[C@H]1O` [Comp. 9, dihydrokaempferol], in data set [2], the IC10 values came to 139.4 ± 10.3 µM. Besides, in data set [3] (Mus musculus, compound at level of IC10, 139.4 μM), the inhibition at 139.4 µM came to 21.3%. In data set [3], the “inhibitory effect on LPS-induced NO production (in words)” value is recorded as “lowest inhibitory effects”.

In general, IC50 refers to the midpoint of a concentration-inhibition curve. Low values mean greater potency, high ones weaker potency. As a reminder, the inhibition is the change of the read-out against control, counted positive when it falls. Higher therefore signals a strong effect.
